Data on 1 compound can be found in patent publication US20260060987A1, “METHODS AND COMPOSITIONS FOR RADIOPROTECTION AND MITIGATION OF RADIATION-INDUCED INJURY USING KINASE INHIBITORS” (Incyte Corporation, priority 2024, published 2026).

The target of the assay is PI3Kδ (Homo sapiens, UniProt O00329). The experiment in a line: PI3Kδ inhibition, IC50 at 1 mM ATP. Format: biochemical.

pIC50: −log10 of the molar value.

PI3Kδ, sequence (O00329 whole entry): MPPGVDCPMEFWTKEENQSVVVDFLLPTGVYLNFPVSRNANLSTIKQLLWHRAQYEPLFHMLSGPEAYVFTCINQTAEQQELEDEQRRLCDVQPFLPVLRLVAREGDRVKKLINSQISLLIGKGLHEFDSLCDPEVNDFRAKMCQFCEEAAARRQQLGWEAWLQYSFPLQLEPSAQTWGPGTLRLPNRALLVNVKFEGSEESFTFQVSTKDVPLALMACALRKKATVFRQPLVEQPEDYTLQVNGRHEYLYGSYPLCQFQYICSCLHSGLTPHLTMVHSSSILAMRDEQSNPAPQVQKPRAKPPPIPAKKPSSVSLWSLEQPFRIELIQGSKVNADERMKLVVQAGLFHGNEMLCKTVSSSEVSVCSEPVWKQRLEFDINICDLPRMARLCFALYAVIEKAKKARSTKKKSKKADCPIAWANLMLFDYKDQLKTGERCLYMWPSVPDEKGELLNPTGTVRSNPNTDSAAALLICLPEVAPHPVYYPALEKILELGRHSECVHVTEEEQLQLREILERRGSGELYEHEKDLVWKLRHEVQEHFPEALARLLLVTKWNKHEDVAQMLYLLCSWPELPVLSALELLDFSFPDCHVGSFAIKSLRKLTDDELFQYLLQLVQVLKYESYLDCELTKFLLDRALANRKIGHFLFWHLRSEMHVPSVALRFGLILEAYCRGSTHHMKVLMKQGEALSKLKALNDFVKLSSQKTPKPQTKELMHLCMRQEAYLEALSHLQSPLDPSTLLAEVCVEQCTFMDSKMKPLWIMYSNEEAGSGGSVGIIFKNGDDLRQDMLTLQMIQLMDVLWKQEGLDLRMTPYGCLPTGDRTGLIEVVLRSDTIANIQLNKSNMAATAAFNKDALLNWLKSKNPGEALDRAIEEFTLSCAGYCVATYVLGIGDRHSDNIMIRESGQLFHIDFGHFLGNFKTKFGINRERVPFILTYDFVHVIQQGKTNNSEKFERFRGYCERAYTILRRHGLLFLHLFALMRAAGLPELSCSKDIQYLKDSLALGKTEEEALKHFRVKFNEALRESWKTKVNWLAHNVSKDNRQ
PI3Kδ, sequence (P27986 whole entry partner): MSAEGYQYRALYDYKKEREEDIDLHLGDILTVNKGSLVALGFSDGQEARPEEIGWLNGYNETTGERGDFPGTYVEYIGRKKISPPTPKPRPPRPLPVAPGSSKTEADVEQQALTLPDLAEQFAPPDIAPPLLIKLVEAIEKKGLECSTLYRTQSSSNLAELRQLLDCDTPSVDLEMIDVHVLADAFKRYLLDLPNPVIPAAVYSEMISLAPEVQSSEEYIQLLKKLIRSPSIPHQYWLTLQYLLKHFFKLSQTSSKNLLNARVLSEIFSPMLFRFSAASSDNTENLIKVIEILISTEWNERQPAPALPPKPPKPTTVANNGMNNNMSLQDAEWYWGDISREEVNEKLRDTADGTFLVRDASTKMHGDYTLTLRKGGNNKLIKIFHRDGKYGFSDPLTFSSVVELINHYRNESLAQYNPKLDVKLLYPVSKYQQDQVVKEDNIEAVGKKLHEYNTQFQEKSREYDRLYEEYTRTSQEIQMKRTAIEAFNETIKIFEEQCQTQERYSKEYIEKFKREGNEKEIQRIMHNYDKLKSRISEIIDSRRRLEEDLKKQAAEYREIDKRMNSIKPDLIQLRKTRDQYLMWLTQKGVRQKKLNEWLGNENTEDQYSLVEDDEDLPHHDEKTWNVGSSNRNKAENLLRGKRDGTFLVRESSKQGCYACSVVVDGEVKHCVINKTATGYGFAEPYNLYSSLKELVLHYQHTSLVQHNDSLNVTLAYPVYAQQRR

With `CCOc1c([C@H](C)n2nc(C)c3c(N)ncnc32)cc(Cl)c(F)c1[C@@H]1CNC(=O)C1` [parsaclisib, (R)-4-(3-((S)-1-(4-amino-3-methyl-1H-pyrazolo[3,4-d]pyrimidin-1-yl)ethyl)-5-chloro-2-ethoxy-6-fluorophenyl) pyrrolidin-2-one], the pIC50 was 9.00.
